Legend:
Assay type in all cases: functional, cell-based
[1] = system: KMS-11; test: Cytotoxicity against human KMS11 cells after 3 to 5 days by CellTiter-Glo assay
[2] = system: 786-0; test: Cytotoxicity against human 786-O cells after 3 to 5 days by CellTiter-Glo assay
[3] = system: A549; test: Cytotoxicity against human A549 cells after 3 to 5 days by CellTiter-Glo assay
[4] = system: SNU1; test: Cytotoxicity against human SNU1 cells after 3 to 5 days by CellTiter-Glo assay

Measured: IC50

CC(C)=CC[C@@H]1C[C@H](CC=C(C)C)C(C)(C)[C@@H](C(=O)C(C)C)C1=O
> 10 µM: all assays above

COC(=O)[C@]1(CC=C(C)C)C[C@H](CC=C(C)C)C(C)(C)[C@@H](C(=O)C(C)C)C1=O
> 10 µM: all assays above

CC(C)=CCCC(=O)[C@]1(CC=C(C)C)C[C@H](CC=C(C)C)C(C)(C)[C@@H](C(=O)c2ccccc2)C1=O
> 10 µM: all assays above

CC(C)=CC[C@@H]1C[C@H](CC=C(C)C)C(C)(C)[C@H](C(=O)C(C)C)C1=O
> 10 µM: all assays above

COC(=O)[C@]1(CC=C(C)C)C[C@H](CC=C(C)C)C(C)(C)[C@H](C(=O)C(C)C)C1=O
> 10 µM: all assays above

CC(C)=CCCC(=O)[C@]1(CC=C(C)C)C[C@H](CC=C(C)C)C(C)(C)[C@H](C(=O)c2ccccc2)C1=O
> 10 µM: all assays above

COC(=O)[C@@]1(CC=C(C)C)C[C@H](CC=C(C)C)C(C)(C)[C@H](C(=O)C(C)C)C1=O
> 10 µM: all assays above

— ChEMBL document CHEMBL4266042, “Total Synthesis of Norsampsones A and B, Garcinielliptones N and O, and Hyperscabrin A” (J Nat Prod, 2018)
